One compound from article PMC9785606, “Design and Synthesis of Novel Phenylahistin Derivatives Based on Co-Crystal Structures as Potent Microtubule Inhibitors for Anti-Cancer Therapy” (Marine Drugs, 2022) can be followed below.

In series [1] the test system is pancreatic cancer BxPC-3 cell line. Nature of the series: MTT cytotoxicity assay, pancreatic cancer BxPC-3 cell line. It is filed as cell-based. The note with it: Homo sapiens, 72 h, mean ± SD. The procedure:
(§1) Human cancer cell lines (lung cancer NCI-H460 cell line, pancreatic cancer BxPC-3 cell line, colon cancer HT-29 cell line) were purchased from American Type Cell Culture Collection (ATCC, Manassas, VA, USA). Cells were maintained in RPMI-1640 medium supplemented with 10% (v/v) heat-inactivated fetal bovine serum, penicillin-streptomycin (100 U/mL-100 […]) at 37 °C in a humidified atmosphere (5% CO2–95% air). All tested derivatives were dissolved in 100% cell culture grade DMSO. Cells (3 × 10^3 per well) were seeded in 96-well plates for 24 h. Then, cells were treated with the tested compounds in six concentrations for 72 h. Cell viability was assessed by MTT assay. The absorbance at 490 nm was measured with a Microplate Reader (Molecular Devices, Silicon Valley, CA, USA). The data were analyzed by Origin 8.5 (OriginLab, Northampton, MA, USA).
For orientation: Formazan colour is commonly taken as a measure of viable cells.

The subject of a further series is caspase-3. The series is described as follows: Western blotting of caspase-3 expression. It is filed as cell-based. The procedure: Western blot was performed as previously described with antibody caspase-3 (1:1000) (WB0177/WB0176) or GAPDH (1:3000) (WB0197/WB0196, Shanghai Wei-Ao Biotechnology Co., Shanghai, China). Densities of the Western blotting bands were quantified using ImageJ 19.0. (NIH, Bethesda, MD, USA).
In general terms: Immunoblotting shows a protein as a band on a membrane.

For series [2], the system named is colon cancer HT-29 cell line. The series is described as follows: MTT cytotoxicity assay, colon cancer HT-29 cell line. The settings on record: Homo sapiens, 72 h, mean ± SD. It is filed as cell-based. The procedure:
as §1

For series [3], the system named is human lung cancer NCI-H460 cell line. Nature of the series: MTT cytotoxicity assay, lung cancer NCI-H460 cell line. It is filed as cell-based. The note with it: Homo sapiens, NCI-H460, 72 h, mean ± SD. The procedure:
as §1

Molecules are shown by their SMILES.

For orientation: IC50 means the concentration at which inhibition is half-maximal. Low readings indicate greater potency in that assay, high ones weaker potency in that assay. As a reminder, the melting point is the temperature, or range, at which the solid turns liquid. The compound `CCCCn1cnc(/C=c2\[nH]c(=O)/c(=C/c3cccc(Oc4ccc(F)cc4)c3)[nH]c2=O)c1C(C)C` [15j] yielded a melting point of 203 to 204 °C. The same compound came in with an IC50 in series [1] of 1.13 ± 0.35 nM. In addition, the “Expression of caspase-3 vs control group and plinabulin group” value in the series on caspase-3 was “significantly higher”. Also, in series [2], the IC50 turned out to be 2.11 ± 0.09 nM. The IC50 in series [3] was 2.49 ± 0.28 nM.
